“Also recorded” adds a separate entry of the source.
Assays:
hGHSR1a^WT [1] = biological target: T1, hGHSR1a^WT (Homo sapiens, UniProt Q92847); conditions: 100 nM, 45 minutes
Method: U2OS cells stably expressing the human GHSR1a^WT and β-arr2^GFP were seeded onto 35 mm MatTek (Ashland, MA, USA) glass coverslip dishes in opti-MEM supplemented with 2% FBS and antibiotic-antimycotic and grown overnight in a humified incubator (5% CO2, 37° C.). The next morning, media was aspirated and replaced with fresh, serum-free opti-MEM (supplemented with antibiotic-antimycotic). […] Next, treatment was terminated by aspiration of media, a PBS wash, and fixation with 4% paraformaldehyde (20 minutes, room temperature (RT)). Fixed cells were either stored at 4° C. or immediately imaged for β-arr2^GFP translocation with a Zeiss LSM 510 meta confocal microscopy.

[2] = biological target: T2, hGHSR1a^WT-RLucII / mVenus-β-arr2 (Homo sapiens, UniProt Q92847); test: BRET β-arr2 recruitment; assay type: cell-based
T2 construct: expressed in transfected cells; host or cells: HEK293/T, transient
Method: The morning after transfection, media was exchanged and after 4-6 hours, cells were then plated on white 96-well, clear-bottomed assay plates at a density of 45,000 cells/well in opti-MEM supplemented with 2% FBS and antibiotic/antimycotic. The following morning, opti-MEM was removed and cells were incubated with 70-80 μL HBSS supplemented with 20 mM HEPES (pH 7.4) for 4 hours. Cells were then treated with 10 μL of coelenterazine H (5 μM final) for 5-10 minutes at room temperature.

hGHSR1a^A204E [3] = biological target: T3, hGHSR1a^A204E (Homo sapiens, UniProt Q92847, A204E); conditions: C/R curve did not saturate
Target sequence in this assay (Q92847 whole entry A204E): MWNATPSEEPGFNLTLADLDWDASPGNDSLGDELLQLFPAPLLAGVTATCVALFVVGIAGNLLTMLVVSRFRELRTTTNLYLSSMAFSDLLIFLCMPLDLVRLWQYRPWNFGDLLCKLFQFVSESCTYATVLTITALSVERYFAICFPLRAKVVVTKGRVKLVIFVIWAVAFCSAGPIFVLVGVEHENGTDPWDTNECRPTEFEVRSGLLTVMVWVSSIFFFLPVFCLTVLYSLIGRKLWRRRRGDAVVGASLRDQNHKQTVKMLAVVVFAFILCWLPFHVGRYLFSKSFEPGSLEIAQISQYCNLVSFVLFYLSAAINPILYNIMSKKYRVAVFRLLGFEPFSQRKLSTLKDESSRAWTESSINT
Method: BRET-based Gαq Dissociation & β-arr2 Recruitment Assays. TRUPATH Gα dissociation: Gαq/i1/i2/OA/12/13/sS^RLuc8 and Gγ8^GFP2 or Gγ9^GFP2 were transiently co-transfected with human 3×HA-GHSR1a^WT and untagged Gβ3 at a 1:1:1:1 ratio (100 μg each) into monolayers of HEK293/T cells along with 1.6 μg pcDNA3.1. The next morning, media (DMEM supplemented with 10% FBS and antibiotic/antimycotic) was exchanged and after 4-6 hours, cells were plated on white 96-well, clear-bottomed assay plates at a density of 40,000-50,000 cells/well in opti-MEM supplemented with 2% FBS and antibiotic/antimycotic. The next morning, opti-MEM was removed and cells were incubated with 80 μL HBSS supplemented with 20 mM HEPES (pH 7.4) for 4 hours. Cells were then treated with 10 μL of the luminescent substrate, coelenterazine 400a (5 μM final), for 5 minutes at room temperature prior to the addition of 10 μL of test compound. Five minutes after ligand application, luminescence was measured by a Mithras 940 plate reader over 30 minutes and the maximal response was utilized for generating all C/R curves.

GHSR1a = GHSR1a (Homo sapiens, UniProt Q92847); test: PRESTO-Tango GPCRome β-arr2 recruitment screen; assay type: cell-based; set-up: expressed in transfected cells; conditions: N8279 1 μM
Method: (§1) Hits were defined as >3-fold activation above baseline. […] The assay quality was assessed by plotting duplicate, independent trial averages (derived from 4 independent wells) for each receptor as a point (X,Y). The corresponding plot of points for an ideal assay were fit by a regression line with the slope=1.

hGHSR1a^WT-RLucII = biological target: T4, hGHSR1a^WT-RLucII (Homo sapiens, UniProt Q92847); test: Bystander BRET endosomal trafficking (2xFYVE-Venus); assay type: cell-based; conditions: 60-minute post-treatment
T4 construct: expressed in transfected cells; host or cells: HEK293/T, transient
Method: Bystander BRET (bBRET). hGHSR1a^WT-RLucII and plasma membrane marker, MyrPalm^mVenus, or the early endosomal marker, 2×-FYVE^mVenus, was transiently co-transfected in HEK293/T cells at a ratio of 1:5 or 1:12.5, respectively. […] Plates were then read by a Mithras 940 plate reader every 5 minutes over 1 hour (MyrPalm^mVenus) or 2 hours (2×FYVE^mVenus) to determine a BRET ratios. To generate CR curves, the average net BRET over 60 minutes post-treatment was used.

GHSR1a^P200A = biological target: T5, GHSR1a^P200A (Homo sapiens, UniProt Q92847, P200A); test: Gαq dissociation and iCa2+ at P200A mutant; assay type: cell-based
T5 construct: expressed in transfected cells; host or cells: HEK293/T
Method: (§2) For experiments with WT and Gt KO HEK293/S cells, […] of hGHSR1a^WT, 10 μg of miAEQ, and 2.5 μg of pcDNA3.1 was transiently transfected into 10 cm dishes and incubated overnight. […] Twenty-four hours later, experiments proceeded in accordance with the procedures described above. To control for any possible kinetic differences in genetically modified cell lines or GHSR1a variants, the average ligand-induced response over 10 seconds was calculated, then normalized by dividing the L-miAeq by the L-miAeq plus the Lysis-miAeq and normalized to the appropriate control/reference condition.

hGHSR1a^A204E [4] = biological target: T3, hGHSR1a^A204E
Target sequence in this assay (Q92847 whole entry A204E): as above
Target sequence in this assay (P32121 whole entry partner): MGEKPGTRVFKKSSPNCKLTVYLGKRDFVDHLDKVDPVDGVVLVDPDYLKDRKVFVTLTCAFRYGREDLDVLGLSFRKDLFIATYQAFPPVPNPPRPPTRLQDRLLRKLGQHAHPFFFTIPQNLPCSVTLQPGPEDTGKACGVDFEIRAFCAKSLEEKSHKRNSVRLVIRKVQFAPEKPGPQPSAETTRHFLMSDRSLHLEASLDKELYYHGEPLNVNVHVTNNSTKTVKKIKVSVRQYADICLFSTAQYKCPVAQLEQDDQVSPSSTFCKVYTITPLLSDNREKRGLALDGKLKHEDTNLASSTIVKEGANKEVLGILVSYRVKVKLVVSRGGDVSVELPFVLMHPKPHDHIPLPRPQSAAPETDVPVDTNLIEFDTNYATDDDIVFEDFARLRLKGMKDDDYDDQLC
Method: β-arr2 recruitment: In agonist and antagonist assays of NanoBiT-based β-arr2 recruitment, hGHSR1a^WT-Lg^BiT and ^SmBiT-β^WT were transiently co-transfected at a 1:1 ratio (250 μg each) into monolayers of HEK293/T cells on 6-well plates along with 2 μg of pcDNA3.1. For assays employing the Ala204Glu variant, hGHSR1a^A204E-Lg^BiT was transfected at 2×hGHSR1a^WT-Lg^BiT, as performed for iCa^2+ assays with hGHSR1a^A204E described above. For GHSR1a-β-arr2 saturation assays, a fixed amount of hGHSR1a^WT-Lg^BiT cDNA (250 μg) was transfected with 0, 62.5 (1:0.25), 125 (1:0.5), 250 (1:1), 500 (1:2), or 1000 (1:4) μg of ^SmBiTβ-arr^WT. The morning after transfection, media was exchanged and after 4-6 hours, cells were then plated on white 96-well, clear-bottomed assay plates at a density of 45,000 cells/well in opti-MEM supplemented with 2% FBS and antibiotic/antimycotic. The following morning, opti-MEM was removed and cells were incubated with 70-80 μL HBSS supplemented with 20 mM HEPES (pH 7.4) for 4 hours. Cells were then treated with 10 μL of coelenterazine H (5 μM final) for 15-20 minutes at room temperature. Cells were then stimulated with 10 μL of test compounds and 2 minutes later, luminescence was measured over 5 minutes, which encompassed the peak β-arr2 recruitment signal.

hGHSR1a^WT [5] = biological target: T1, hGHSR1a^WT; test: Fixed-cell ELISA GHSR1a internalization; assay type: cell-based; set-up: expressed in transfected cells; HEK293/S Gαq/11 KO and parental WT (iCa2+); conditions: 45 minutes at 37° C.
Method: Chemiluminescent Fixed-Cell ELISA. […] The next morning, media was removed and cells were serum starved with 90 μL of opti-MEM (containing no serum) for 2-3 hours at 37° C. Cells were then stimulated with 10× test compounds (diluted in serum-free opti-MEM) for 45 minutes at 37° C. in a humidified incubator. After 45 minutes, cells were fixed with 4% paraformaldehyde for 15 minutes (RT). Fixed cells were then washed three times with PBS (pH 7.4, Gibco) and blocked with fish gelatin in TBS (Rockland, Gilbertsville, PA) for 45 minutes. Cells were then incubated with a rabbit, horseradish peroxidase (HRP)-conjugated anti-HA antibody (1:2, 500; Novus Biologicals, Littleton, CO) for 1 hour (RT). […] The average luminescence was used and the data for each ligand were normalized its corresponding vehicle treatment conditions.

GHSR1a^R199A = biological target: T6, GHSR1a^R199A (Homo sapiens, UniProt Q92847, R199A); test: Gαq dissociation and iCa2+ at R199A mutant; assay type: cell-based
T6 construct: expressed in transfected cells; host or cells: HEK293/T
Method: as §2

GHSR1a^N305A [6] = biological target: T7, GHSR1a^N305A (Homo sapiens, UniProt Q92847, N305A); test: iCa2+ at N305A mutant; assay type: cell-based
T7 construct: expressed in transfected cells; host or cells: HEK293/T
Method: as §2

C57BL/6J mice = test: Novelty-induced open-field locomotion in WT mice; assay type: in vivo, mouse; conditions: 2.5, 5, 10 mg/kg IP
Method: N=14-17 mice per treatment group.
Novelty-induced locomotor activity in DAT KO and inbred C57BL/6J mice. Open-field locomotor activity in mice was performed similar to that described in Barak et al., ACS Chem Biol. (2016)11(7):1880-90, the disclosure of which is incorporated herein in its entirety. In brief, Age- and sex-matched, littermate DAT KO and inbred C57BL/6J mice between 2-6 months of age were used to measure locomotor activity in an Omnitech Digiscan activity monitor (20×20 cm2; Accuscan Instruments, Columbus, OH). Locomotor activity was measured at 5 minutes intervals.

GHSR1a^N305A [7] = biological target: T7, GHSR1a^N305A; test: TRUPATH Gαq dissociation at N305A mutant; assay type: cell-based
mGHSR A199P = biological target: T8, mGHSR A199P (Mus musculus, UniProt Q99P50, A199P); test: Gαq dissociation and β-arr2 recruitment at humanized mouse receptor; assay type: cell-based
T8 construct: expressed in transfected cells
Method: To assess if N8279 signaling required receptor sites within and/or conformational states are conserved from the mouse receptor to the human receptor, the amino acid sequences for variations within the ECL2 were first determined (FIG. 17A). Mutations were made to human GHSR1a receptor (hGHSR) for W193R and P200A and to mouse GHSR1a receptor (mGHSR) for […]. N8279-stimulated Gαq dissociation (FIG. 17B) and β-arr2 recruitment (FIG. 17C) were evaluated for each hGHSR and mGHSR mutants in comparison to endogenous (WT) receptors.

GHSR1a^E197A [8] = biological target: T9, GHSR1a^E197A (Homo sapiens, UniProt Q92847, E197A); test: iCa2+ at E197A mutant; assay type: cell-based
T9 construct: expressed in transfected cells; host or cells: HEK293/T
Method: as §2

GHSR1a^E197A [9] = biological target: T9, GHSR1a^E197A; test: TRUPATH Gαq dissociation at E197A mutant; assay type: cell-based
GPCRome (320 receptors) = test: PRESTO-Tango GPCRome β-arr2 recruitment screen, other receptors; assay type: cell-based; conditions: N8279 1 μM; hit >3-fold
Method: as §1

T1 sequence (Q92847 whole entry): as the sequence (Q92847 whole entry A204E) above, with E204A counted along it
T4 sequence (Q92847 whole entry): as the sequence (Q92847 whole entry A204E) above, with E204A counted along it
T9 sequence (Q92847 whole entry E197A): as the sequence (Q92847 whole entry A204E) above, with E197A, E204A counted along it
T7 sequence (Q92847 whole entry N305A): as the sequence (Q92847 whole entry A204E) above, with E204A, N305A counted along it
T8 sequence (Q99P50 whole entry A199P): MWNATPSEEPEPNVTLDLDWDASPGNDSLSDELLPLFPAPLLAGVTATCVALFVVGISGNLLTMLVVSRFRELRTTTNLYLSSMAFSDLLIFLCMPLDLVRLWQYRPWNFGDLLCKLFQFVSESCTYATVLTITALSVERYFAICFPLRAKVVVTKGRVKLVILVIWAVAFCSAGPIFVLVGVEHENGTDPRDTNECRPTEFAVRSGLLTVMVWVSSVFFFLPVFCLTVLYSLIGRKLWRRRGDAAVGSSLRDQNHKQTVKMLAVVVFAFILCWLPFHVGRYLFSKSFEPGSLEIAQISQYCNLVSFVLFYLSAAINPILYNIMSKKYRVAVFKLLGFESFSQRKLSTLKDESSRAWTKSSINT
T5 sequence (Q92847 whole entry P200A): as the sequence (Q92847 whole entry A204E) above, with P200A, E204A counted along it
T6 sequence (Q92847 whole entry R199A): as the sequence (Q92847 whole entry A204E) above, with R199A, E204A counted along it
GHSR1a, sequence (Q92847 whole entry): as the sequence (Q92847 whole entry A204E) above, with E204A counted along it
T2 sequence (Q92847 whole entry): as the sequence (Q92847 whole entry A204E) above, with E204A counted along it
T2 sequence (P32121 whole entry partner): as the sequence (P32121 whole entry partner) above

For COc1ccc(C(=O)c2c(C(=O)NCCCN(C)C)oc3ccc(Cl)cc3c2=O)cc1OC [Example N8279, 6-Chloro-3-(3,4-dimethoxybenzoyl)-N-(3-(dimethylamino)propyl)-4-oxo-4H-chromene-2-carboxamide], the “β-arr2^GFP translocation in words” value (hGHSR1a^WT [1]) was “minimal response”, the “BRET β-arr2 recruitment, fold less potent than ghrelin” value [2] was ~100 fold and the “Gαq dissociation potency reduction at GHSR1a^A204E vs WT” value (hGHSR1a^A204E [3]) was > 20 fold. For the same molecule, the “activation above baseline at GHSR1a” value (GHSR1a) was 6 fold, the “endosomal transit, fold less potent than ghrelin (bBRET 2xFYVE)” value (hGHSR1a^WT-RLucII) was 32 fold and the “endosomal transit, less efficacious than ghrelin (bBRET 2xFYVE)” value (hGHSR1a^WT-RLucII) was ~35%. The “potency and Emax at GHSR1a^P200A in words” value (GHSR1a^P200A) was “reduced dramatically”, the Emax (hGHSR1a^A204E [4]) was ~35% and the “internalization efficacy reduction relative to ghrelin (ELISA)” value (hGHSR1a^WT [5]) was ~30%. The “internalization potency reduction relative to ghrelin (ELISA)” value (hGHSR1a^WT [5]) was 24 fold, the “potency at GHSR1a^R199A in words” value (GHSR1a^R199A) was “did not affect” and the “iCa2+ potency reduction at GHSR1a^N305A” value (GHSR1a^N305A [6]) was 6.5 fold. For the same molecule, the “novelty-induced open-field locomotion in words” value (C57BL/6J mice) was “No statistically significant differences; also recorded: did not affect”, the “Gαq dissociation at GHSR1a^N305A in words” value (GHSR1a^N305A [7]) was “reduced dramatically” and the “signaling at humanized mGHSR in words” value (mGHSR A199P) was “rescues”. For the same molecule, the “iCa2+ potency reduction at GHSR1a^E197A” value (GHSR1a^E197A [8]) was ~3 fold, the “Gαq dissociation potency reduction at GHSR1a^E197A” value (GHSR1a^E197A [9]) was ~10 fold and the “activation above baseline at any other GPCR” value (GPCRome (320 receptors)) was ≤ 3 fold.

— patent publication US20240391928A1, “COMPOSITIONS FOR THE TREATMENT OF FOOD AND CHEMICAL ADDICTION AND METHODS OF MAKING AND USING SAME” (Duke University, priority 2021, published 2024)
